Compound | melting point [°C]
O=C(O)c1cccc(S(=O)(=O)Cc2ccccc2)c1 | 214 to 216
S=C(c1cn(-c2ccccc2)nc1-c1ccccc1)N1CCCCC1 | 124 to 126
CC(NC(N)=O)C12CC3CC(CC(C3)C1)C2 (configuration not stated) | 159 to 161
COC(=O)c1c[nH]c(CC(C)C)n1 | 136 to 138
COc1ccc(C(N)Cc2ccccc2C)cc1OC (configuration not stated) | 49 to 51
CSC(C(=O)O)C(C)(C)C (configuration not stated) | 83 to 85
COc1ccccc1C1CC1C(=O)O (configuration not stated) | 137 to 139
O=C(O)COc1cc(Cl)cc(Cl)c1 | 115 to 117
O=C(O)CCCc1ccccc1Br | 87 to 89
O=C(O)c1cc(Br)c(S(=O)(=O)Cl)c(Br)c1 | 199 to 201
CCc1ccc(C(C)=CC(=O)O)cc1 | 104 to 106
CCOC(=O)c1sc2ncnc(Cl)c2c1C | 113 to 115
O=C(O)Cn1ccc(=O)c([N+](=O)[O-])c1 | 249 to 251
O=C(Nc1cccc([N+](=O)[O-])c1)OCC(F)(F)F | 98 to 100
O=C(O)c1cnc(Cl)nc1Cl | 96 to 98
COCCn1cc(S(=O)(=O)Cl)cn1 | 35 to 37
CC(C)(C)c1nnc(N)o1 | 226 to 228
N#Cc1cccc(CS(=O)(=O)NN)c1 | 139 to 141
CC1(C)CN(C(=O)OC(C)(C)C)c2ccccc2N1 | 92 to 94
CN(CC(=O)Nc1ccc(F)cc1)C(=O)CCl | 159 to 161
COc1ccc(S(=O)(=O)N(C)c2ccc(O)cc2)cc1 | 88 to 90
O=[N+]([O-])c1ccc(C2CN=C(Nc3ccccc3)S2)cc1 (configuration not stated) | 136 to 138
O=C(O)C1CC1[N+](=O)[O-] (configuration not stated) | 123 to 125
OC(c1cnn(-c2ccccc2)c1)C(F)(F)F (configuration not stated) | 77 to 79
NC(=O)C(N)c1cccc(Br)c1 (configuration not stated) | 107 to 109
CS(=O)(=O)Nc1nnc(N)s1 | 251 to 253
O=S(=O)(Cl)CCc1ccccc1 | 30 to 32

Compound | melting point [°C]
O=C(O)c1cc(F)c(F)cc1I | 127 to 129
CC(C)c1cc(C(=O)O)nn1C | 87 to 89
Cc1sc(C(N)=O)cc1S(=O)(=O)Cl | 122 to 124
NS(=O)(=O)C1CCOC1 (configuration not stated) | 85 to 87
CCNC(=O)CC(=O)O | 51 to 53
COC(=O)C1CCN(c2nc3ccccc3s2)CC1 | 91 to 93
COc1ccc(S(N)(=O)=O)c([N+](=O)[O-])c1 | 143 to 145
CS(=O)(=O)N1CCc2c(N)cccc2C1 | 155 to 157
O=Cc1cc(O)c(O)c(Br)c1 | 219 to 221
NC(CN1CCCC1=O)c1ccccc1 (configuration not stated) | 99 to 101
O=C(O)Cn1nccn1 | 129 to 131
O=C(CCl)c1ccc(Oc2ccccc2)cc1 | 54 to 56
COc1ccc(C=C2CCCc3c2nc2ccccc2c3C(=O)O)cc1OC | 110 to 114
CCOc1cccc2c1OCC(C(=O)O)=C2 | 219 to 221
O=C(O)CNC(=O)/C=C/c1ccccc1 | 191 to 193
CC(=O)NC(C)(C)C(=O)O | 190 to 192
Nc1cc(Cl)c(S(N)(=O)=O)cc1[N+](=O)[O-] | 257 to 259
COC(=O)c1cc(S(N)(=O)=O)c(F)cc1Br | 164 to 166
O=C(O)C1CCCN1C(=O)Cc1ccccc1 (configuration not stated) | 147 to 149
COc1cc(C=O)ccc1OCC(=O)N1CCCC1 | 117 to 119
CCN1CCN(c2ccc(C#N)cn2)CC1 | 69 to 71
COCCn1nc(C)c(C(C)=O)c1C | 31 to 33
COC(=O)N1CCCNC(=O)C1 | 134 to 136
CCc1nc2sccc2c(=O)[nH]1 | 199 to 201
Nc1ccccc1NC(=O)Cc1cccs1 | 163 to 165
CS(=O)(=O)c1ccc(Br)c(C(=O)O)c1 | 203 to 205
NC(=O)C1CCN(CCc2ccc(N)cc2)CC1 | 223 to 225

Compound | melting point [°C]
O=C(O)Cn1c(=O)[nH]c2ccccc2c1=O | 295 to 297
CC(C)(C#N)C(=O)O | 54 to 56
O=C(O)/C=C/c1cc(C(F)(F)F)ccc1Cl | 147 to 149
Nc1ccc(S(=O)(=O)NC2CC2)cn1 | 169 to 171
O=C(O)c1sccc1S(=O)(=O)N1CCC(O)CC1 | 219 to 221
COc1ccc(S(=O)(=O)NC(C(=O)O)C(C)C)cc1 (configuration not stated) | 172 to 174
COc1ccccc1C(N)=NO | 105 to 107
Nc1ccccc1CS(=O)(=O)c1ccccc1 | 172 to 174
O=C(O)CNC(=O)CC1CCCCC1 | 116 to 118
N#Cc1ccsc1C(=O)O | 191 to 193
CCN(CC)S(=O)(=O)c1ccc2c(c1)CCN2 | 80 to 82
Cc1ccc(NC(=O)CC(N)=NO)cc1 | 168 to 170
O=C(O)CC(Br)C(=O)c1cccs1 (configuration not stated) | 125 to 127
NC(=S)NCCc1ccccn1 | 94 to 98
N#Cc1cc(Br)cc(S(=O)(=O)Cl)c1 | 74 to 76
Cn1cc(CC(=O)O)cn1 | 121 to 123
O=C1NC(=O)C2(CCc3ccccc32)N1 (configuration not stated) | 229 to 231
Nc1ccc(CC(=O)N2CCCc3ccccc32)cc1 | 141 to 143
NS(=O)(=O)c1ccc(C(=O)O)cc1Br | 201 to 203
CC(C)c1[nH]nc(C(=O)O)c1[N+](=O)[O-] | 149 to 151
Cc1noc(C)c1CNC(=O)CCl | 79 to 81
CCN(CC)S(=O)(=O)c1ccc(O)c([N+](=O)[O-])c1 | 82 to 84
O=c1[nH]cc(Br)c2sccc12 | 229 to 231
CC(Cl)C(=O)Nc1ccnn1C(C)C (configuration not stated) | 69 to 71
N#Cc1ccc(Br)cc1C(F)(F)F | 35 to 37

Continued, values first:

melting point [°C] | Compound
159 to 161 | NC(Cc1nc2ccccc2s1)=NO
219 to 221 | Nc1ccnn1Cc1ccncc1
187 to 189 | O=C(O)c1cc(Cl)nc2ccccc12
258 to 260 | COc1ccc(C(=O)O)cc1S(=O)(=O)Nc1ccc(C)cc1
< 17 | CC(C)(C)c1ccc(Cn2nccc2N)cc1
181 to 183 | Cc1c(Cl)cc(S(N)(=O)=O)cc1[N+](=O)[O-]
165 to 167 | Nc1ccc2cccc(Cl)c2n1
189 to 191 | O=C(O)CCCCNC(=O)c1ccc2[nH]nnc2c1
103 to 105 | COc1ccc2nc(Cl)ccc2c1
154 to 156 | NS(=O)(=O)Cc1cccc2cccnc12
198 to 202 | Cc1cc(C(=O)O)c(C)n1Cc1ccc(S(N)(=O)=O)cc1
207 to 209 | NNC(=O)c1cc(-c2ccccc2)n[nH]1
124 to 126 | COc1ccc(-c2csc(CN)c2)cc1
156 to 158 | O=C(O)c1ccc(Oc2ccc(F)c(F)c2)cc1
273 to 275 | O=C(O)c1cccc(NC(=O)c2cccc(Br)c2)c1
322 to 324 | Cc1c(Cl)cccc1-n1c(S)nnc1-c1ccncc1
135 to 140 | COc1ccc(O)c(N)c1
199 to 201 | O=C(O)c1cc(-c2ccccc2)ccc1Cl
43 to 45 | OCc1ccnc(-c2ccccc2)n1
173 to 175 | NC(=S)Cc1nc2ccccc2s1
114 to 116 | O=C(Nc1cccc(CO)c1)c1ccccc1

melting point [°C] | Compound
144 to 146 | O=c1c(Cl)c(Cl)cnn1-c1ccc(S(=O)(=O)Cl)cc1
82 to 84 | Cc1csc(-c2cccc(N)c2)n1
100 to 102 | COc1ccc(Oc2ccc(CO)cc2)cc1
249 to 251 | Cc1cccc(C(=O)O)c1NC(=O)c1ccncc1
167 to 169 | O=C(O)Cc1csc(NC(=O)c2ccccc2I)n1
179 to 181 | COCCOc1cc(C(=O)O)nc2ccccc12
189 to 193 | CCOC(=O)c1nc2ccccc2c(=O)[nH]1
136 to 138 | Cc1ccc2nc(CCl)cc(=O)n2c1
87 to 89 | Cc1ccc(Oc2ccc(Cl)cc2NC(=O)CCl)cc1
72 to 74 | CC(Oc1ccc(F)cc1Cl)C(=O)O (configuration not stated)
154 to 156 | Nc1cccc(-c2nc(C3CC3)n[nH]2)c1
68 to 70 | O=Cc1ccc(-n2ccc(C(F)(F)F)n2)cc1
99 to 101 | CC(C)(C(N)=S)c1ccccc1
102 to 104 | CNC(=O)c1cccc(N)n1
148 to 150 | O=Cc1cn(-c2ccc(F)c(Cl)c2)nn1
279 to 281 | CC(c1ccncc1)n1nccc1N (configuration not stated)
83 to 85 | Cc1cccc2c1OCC2=O
89 to 93 | CCOC(=O)c1ccc(-n2ccnc2)c(N)c1
189 to 191 | O=C(O)c1cc(-c2cccc(F)c2)no1
237 to 239 | O=C(O)c1cccc(N2C(=O)CCC2=O)c1
163 to 165 | NC(=O)c1cccc(O)c1

melting point [°C] | Compound
87 to 89 | CN(C)C(=O)c1cccc(C#N)c1
77 to 79 | CC(=O)c1nc(-c2ccccc2)cs1
183 to 185 | O=Cc1cn2cc(Cl)ccc2n1
108 to 110 | O=C(O)c1cccc(COc2cccc(F)c2)c1
97 to 99 | Nc1oncc1-c1ccccc1
169 to 171 | Cc1cc2ncn(C(C)c3ccccc3)c2cc1C (configuration not stated)
169 to 171 | Nc1ccc2nncn2c1
160 to 162 | O=c1cc(CCl)c2ccc(Br)cc2o1
116 to 118 | CS(=O)(=O)c1ccc(N)cc1F
149 to 151 | COc1ccc(-n2nc(C(=O)O)cc2C)cc1
54 to 56 | O=C1CCN(c2ccc(Cl)cc2)CC1
83 to 85 | CC1=CC(=O)N(c2ccccc2F)C1=O
119 to 121 | Cc1ccc(I)c(C(=O)O)c1
119 to 121 | Cc1cc(Cl)nc(-c2ccncc2)n1
185 to 187 | COC(=O)c1cnc2[nH]nc(C)c2c1
120 to 122 | Cc1cc(N)nn1-c1ccc(F)cc1F
162 to 164 | CCCCOc1ccc(C(N)=O)cc1
184 to 186 | COc1ccccc1-c1nc(C(=O)O)cs1
170 to 172 | CC(=O)c1ccc(NS(=O)(=O)c2ccc(C)cc2)cc1
128 to 130 | NCc1cccc(NC(=O)c2ccncc2)c1
65 to 67 | OCc1ccccc1Oc1ccc(I)cc1

Reference: a melting point compilation (Tetko et al.)
